Measurements: US20050209157A1, “Short bioactive peptides and methods for their use” (priority 2001, published 2005)
Converted amounts (≈) assume the structure as drawn. Where two headings read alike, the source gives them in different places. Non-standard residues stand in square brackets, D forms with d. Residues, ends and D or L forms follow the SMILES beside them. No end group written: not given here.

How the values were obtained:
[1] = system: Pseudomonas aeruginosa ATCC 9027; assay: Antimicrobial assay I, MIC by OD measurement; format: cell-based; details: 37° C. for 24 hours, absorbance 620 nm
[2] = system: Staphylococcus aureus ATCC 6538; assay: Antimicrobial assay I, MIC by OD measurement; format: cell-based; details: 37° C. for 24 hours, absorbance 620 nm
[3] = system: yeast (Saccharomyces cerevisiae); assay: Antimicrobial assay I, yeast assay in RPMI 1640; format: cell-based; details: RPMI 1640 media
S. aureus (MRSA) = format: cell-based, Staphylococcus aureus; details: mean of three; 16 to 20 hours at 35° C.
S. epidermidis C621 = format: cell-based, Staphylococcus epidermidis; details: mean of three; 16 to 20 hours at 35° C.
S. pyogenes M76 = assay: Antimicrobial assays II, NCCLS broth microdilution MIC; format: cell-based, Streptococcus pyogenes; details: mean of three; 16 to 20 hours at 35° C.
S. pyogenes ATCC19615 = assay: as above; format: cell-based, Streptococcus pyogenes; details: mean of three, in µg/mL
S. pneumoniae C718 = assay: as above; format: cell-based, Streptococcus pneumoniae; details: mean of three
S. pneumoniae C719 = assay: as above; format: cell-based, Streptococcus pneumoniae; details: mean of three, in µg/mL
P. acne ATCC 6919 = assay: as above; format: cell-based, Propionibacterium acnes; details: mean of three, in µg/mL
BMKC = assay: Anti-cancer assay, MTT, LD50; format: cell-based; details: BMKC cloned melanoma line, 24 hours with peptide
From the text: (§1) Numbers are LD50 values (μg/mL).

H1299 = assay: Anti-cancer assay, MTT, LD50; format: cell-based; details: 24 hours with peptide, lung large cell carcinoma
From the text: as §1

MCF7 = assay: Anti-cancer assay, MTT, LD50; format: cell-based; details: MCF7 breast adenocarcinoma line, MTT, 24 hours with peptide
From the text: as §1

PC3 = assay: Anti-cancer assay, MTT, LD50; format: cell-based; details: 24 hours with peptide, prostate adenocarcinoma
From the text: as §1

SW480 = assay: Anti-cancer assay, MTT, LD50; format: cell-based; details: SW480 colon adenocarcinoma line, 24 hours with peptide
From the text: as §1

in vitro [4] = format: cell-based, human; details: human, human red blood cells, pH 7, hemolytic assay, concentration at 50% hemolysis, 1 hour at 37° C.; read-out: LD50
P. aeruginosa H374 = format: cell-based, Pseudomonas aeruginosa; design: key to FIC Index: FIC = 0.25 + MIC antibiotic in combination / MIC alone; ≤0.5 = synergy; details: for MIC Cm-comb.: MIC of chloramphenicol with peptide at ¼ MIC; for MIC Nal-comb.: MIC of nalidixic acid with peptide at ¼ MIC; for FIC Index: 0.5 or less = synergy
Method in brief: (§2)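 Synergy against efflux-mutant strains: two-fold dilutions of nalidixic acid or chloramphenicol tested with peptide held at ¼ of its MIC.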

P. aeruginosa H774 = format: cell-based, Pseudomonas aeruginosa; design: key to FIC Index: FIC = 0.25 + MIC antibiotic in combination / MIC alone; ≤0.5 = synergy; details: P. aeruginosa H744; nalidixic acid + peptide at ¼ MIC; 0.5 or less = synergy
Method in brief: as §2

P. aeruginosa = format: cell-based, Pseudomonas aeruginosa; design: key to FIC Index: FIC = 0.25 + MIC antibiotic in combination / MIC alone; ≤0.5 = synergy; details: P. aeruginosa H744; MIC of nalidixic acid with peptide at ¼ MIC
Method in brief: as §2

WI38 = details: MTT, 24 hours with peptide; normal fibroblast line
in vitro [5] = details: human, WI38 normal lung fibroblast cells, LD50 WI38, WI38 normal lung fibroblast line, MTT, 24 hours with peptide
HeLaS3 = assay: Anti-cancer assay, MTT, LD50; format: cell-based; details: 24 hours with peptide, cervical carcinoma
From the text: as §1

[6] = chloramphenicol + peptide at ¼ MIC
[7] = nalidixic acid + peptide at ¼ MIC, FIC=0.25+MIC comb/MIC alone

Compound | paerug9027 (MIC) [1] | staph6538 (MIC) [2] | yeast (MIC or MFC) [3] | S. aureus (MRSA) MIC (S. aureus (MRSA)) [µg/mL] | S. epidermidis C621 MIC (S. epidermidis C621) [µg/mL] | S. pyogenes M76 MIC (S. pyogenes M76) [µg/mL] | S. pyogenes MIC (S. pyogenes ATCC19615) | S. pneumoniae MIC (S. pneumoniae C718) [µg/mL] | S. pneumoniae MIC (S. pneumoniae C719) | P. acne MIC (P. acne ATCC 6919) | LD50 BMKC (BMKC) [µg/mL] | H1299 LD50 (H1299) [µg/mL] | LD50 MCF7 (MCF7) [µg/mL] | PC3 LD50 (PC3) [µg/mL] | MIC Cm-comb. (P. aeruginosa H374) [µg/mL] | MIC Nal-comb. (P. aeruginosa H374) [µg/mL] | FIC Index (P. aeruginosa H374; [6]) | FIC Index (P. aeruginosa H374; [7]) | FIC Index (P. aeruginosa H774) | MIC Nal-comb. (P. aeruginosa) [µg/mL] | other results
CC(C)C[C@H](NC(=O)[C@H](C)NC(=O)[C@H](CCCCN)NC(=O)[C@H](CCCCN)NC(=O)[C@H](CC(C)C)NC(=O)[C@H](C)NC(=O)[C@H](CCCCN)NC(=O)[C@H](CCCCN)NC(=O)[C@H](CC(C)C)NC(=O)[C@@H](CCCCN)NC(=O)[C@@H](CCCCN)NC(=O)[C@H](CC(C)C)NC(=O)[C@H](C)NC(=O)[C@H](CCCCN)NC(=O)[C@H](CCCCN)NC(=O)[C@H](CC(C)C)NC(=O)[C@H](C)NC(=O)[C@H](CCCCN)NC(=O)[C@H](CC(C)C)NC(=O)[C@H](C)NC(=O)[C@H](CC(C)C)NC(=O)[C@H](C)NC(=O)[C@@H](N)Cc1ccccc1)C(=O)O [P37, FALALKALKKAL-(D)-K-(D)-KLKKALKKAL-COOH] (H-FALALKALKKAL[dK][dK]LKKALKKAL-OH; N-terminus assumed) | 100 µg/mL | 5 µg/mL | 50 µg/mL | 8 | 4 | 8 | 8 | 64 | 16 | 4 | 150 | 150 | 14 | 64 | 4 | 2500 | 0.5 | 0.75 | 1.25 | 624 | LD50 SW480 (SW480): 57 µg/mL; HC50 at 1 h (in vitro [4]): 30 µg/mL; WI38 LD50 (WI38): 80 µg/mL; CC50 at 24 h (in vitro [5]): 80 µg/mL (≈ 31.5 µM)
FAKALKALLKALKAL-NH2 [P64] | > (> indicates greater than 200 μg/mL) | 5 µg/mL | 200 µg/mL | 8 | 4 | 4 | 4 | 8 | 2 | 2 | 35 | 30 | 80 | 46 | 16 | 5000 | 1.25 | 1.25 | 1.25 | 624 | HeLaS3 LD50 (HeLaS3): 30 µg/mL
FAKKLAKKLKKLAKKLAKKWKL-OH [P72] | – | – | – | 16 | 4 | 16 | 16 | > 128 | 16 | 2 | 290 | 160 | 93 | 63 | 8 | 2500 | 0.75 | 0.75 | 0.75 | 312 | HeLaS3 LD50 (HeLaS3): 240 µg/mL; LD50 SW480 (SW480): 82 µg/mL; HC50 at 1 h (in vitro [4]): 110 µg/mL; WI38 LD50 (WI38): 125 µg/mL; CC50 at 24 h (in vitro [5]): 125 µg/mL
FAKKLAKKLL-NH2 [P59] | > (> indicates greater than 200 μg/mL) | > (> indicates greater than 200 μg/mL) | > (> indicates greater than 200 μg/mL) | 8 | 8 | 2 | 2 | 16 | 4 | 2 | 155 | 180 | 31 | 81 | 8 | 2500 | 0.75 | 0.75 | 1.25 | 624 | LD50 SW480 (SW480): 42 µg/mL; HC50 at 1 h (in vitro [4]): 1000 µg/mL; WI38 LD50 (WI38): 77 µg/mL; CC50 at 24 h (in vitro [5]): 77 µg/mL
